For series [1], the target named is T1, MtmGDH (Methylotuvimicrobium alcaliphilum, UniProt G4T0V2).
T1 construct: gene gdhI; full ORF, N-terminal His6 kept, E. coli Rosetta (DE3), pET28
T1 sequence (G4T0V2 1-271): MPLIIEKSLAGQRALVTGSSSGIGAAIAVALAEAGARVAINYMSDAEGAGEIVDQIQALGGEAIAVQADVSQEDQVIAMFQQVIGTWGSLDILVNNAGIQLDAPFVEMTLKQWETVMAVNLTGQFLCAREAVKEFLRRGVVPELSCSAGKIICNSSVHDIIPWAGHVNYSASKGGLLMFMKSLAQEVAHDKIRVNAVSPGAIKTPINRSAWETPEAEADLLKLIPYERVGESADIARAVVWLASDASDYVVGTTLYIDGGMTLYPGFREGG
In words: biochemical. Particulars: read-out: % of control remaining; for remaining activity at 1000 µM: 1 mM; for remaining activity at 5000 µM: 5 mM. The protocol:
GDH activity assay The activity of GDH from Mtm. alcaliphilum was measured by recording the rate of NAD^+ or NADP^+ reduction at 30 °C. 1 mL of the reaction mixture routinely contained 50 mM Glycine–NaOH buffer, pH 10.0; 0.3 mM NAD(P)^+ and ~ 1 μg of GDH. The reaction was started with 200 mM D-glucose. The activity of Mb. luteus GDH was measured using 20 mM D-glucose in 50 mM Tris–HCl, pH 8.5. […] The effect of pH on the activity was studied using the following buffers (50 mM): Glycine–NaOH (pH 9.0–10.5), CHES-NaOH (pH 8.5–10.0), Tris–HCl (pH 7.5–9.0), and MES-NaOH (pH 5.0–7.0). KCl, NH4Cl or NaCl at a final concentration of 50 mM were added to test the effect of monovalent ions on the enzyme activity. The effects of divalent metals were assessed using MgCl2, MnCl2, [compound left out], CuCl2, CdCl2, NiCl2 or ZnCl2 at a final concentration of 1 mM. Glucose-6-phosphate, glucose-1-phosphate, fructose-6-phosphate, fructose-1,6-bisphosphate (5 mM), pyruvate, PEP, oxaloacetate, lactate, malate, isocitrate, citrate, succinate, serine, α-ketoglutarate, ATP, ADP, AMP and PPi (1 mM) were examined as potential inhibitors or activators. To determine the optimal temperature for enzyme activity, the reaction was carried out in a temperature range of 10–70 °C.

Series [2] has as its target T2, MbGDH (Methylobacter luteus, UniProt Z9JUG8QEO0).
T2 construct: gene gdh; full ORF, N-terminal His6 (pET28Ub-shHis)
In words: NAD(P)H formation at […] nm. In kind it is biochemical. To be noted: inhibitor; 10 mM in results (5 mM in methods); pH 8.5 Tris-HCl, 20 mM D-glucose.

The target in series [3] is T3, MtmGntK (Methylotuvimicrobium alcaliphilum, UniProt G4T089).
T3 construct: gene gntK; C-terminal His6, E. coli Rosetta (DE3), pET30; ~20 kDa, monomer
T3 sequence (G4T089 1-181): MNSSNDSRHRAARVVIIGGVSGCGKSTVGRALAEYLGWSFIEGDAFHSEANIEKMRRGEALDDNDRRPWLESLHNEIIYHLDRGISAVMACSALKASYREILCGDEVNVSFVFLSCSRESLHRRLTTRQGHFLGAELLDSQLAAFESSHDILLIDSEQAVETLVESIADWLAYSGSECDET
The series is described as follows: biochemical. The arrangement: recombinant gluconate kinase activity, coupled to 6-phosphogluconate dehydrogenase, NADPH at 340 nm, effect of added metabolite. Particulars: read-out: % of control remaining; for remaining activity at 5000 µM: 5 mM; for remaining activity at 1000 µM: 1 mM. The protocol:
GntK activity assay The activity of GntK was measured in the reaction mixture containing 50 mM Tris–HCl buffer, pH 9.0; 8 mM MgCl2; 6 mM gluconate; 5 mM ATP; 0.3 mM NADP^+; 5U 6-phosphogluconate dehydrogenase (6PGDH, Sigma-Aldrich) as a coupling enzyme and ~ 15 µg GntK. The activity of Mb. luteus GntK was assayed in 50 mM Tris–HCl buffer (pH 8.0). The reaction was started with 6 mM sodium gluconate. To study the effect of pH, the following buffers were used (50 mM): Carbonate (pH 9.0–10.5), TAPS-NaOH (pH 8.0–9.0), Tris–HCl (pH 7.5–9.0), K-phosphate (pH 7.0–8.0), MES-NaOH (pH 5.0–6.0) or citrate (pH 4.0–5.0). […] The NAD^+/NADP^+ reduction rates were measured at 340 nm with a UV-1700 spectrophotometer (Shimadzu). The apparent Km and Vmax values were calculated using Sigma Plot (version 10). The exponentially grown cells were used to measure enzymatic activity in cell-free extracts.

Series [4] deals with T4, NC(=O)c1ccc[n+]([C@@H]2O[C@H](COP(=O)(O)OP(=O)(O)OC[C@H]3O[C@@H](n4cnc5c(N)ncnc54)[C@H](OP(=O)(O)O)[C@@H]3O)[C@@H](O)[C@H]2O)c1.
T4 construct: full ORF, N-terminal His6 (pET28Ub-shHis)
The series is described as follows: purified protein. In kind it is biochemical, Methylobacter luteus. Particulars: pH 8.5 Tris-HCl, D-glucose.

Series [5] relates to T5, NC(=O)c1ccc[n+]([C@@H]2O[C@H](COP(=O)(O)OP(=O)(O)OC[C@H]3O[C@@H](n4cnc5c(N)ncnc54)[C@H](O)[C@@H]3O)[C@@H](O)[C@H]2O)c1.
T5 construct: full ORF, N-terminal His6 (pET28Ub-shHis)
The series is described as follows: purified protein. It counts as biochemical, Methylobacter luteus. Particulars: pH 8.5 Tris-HCl, D-glucose.

Series [6] concerns the target glucose dehydrogenase (GDH) from Methylotuvimicrobium alcaliphilum 20Z (Methylotuvimicrobium alcaliphilum 20Z). The series is described as follows: SEC; gel filtration on XK 16/100 Superdex 200, 0.02 M Tris-HCl pH 7.0 with 0.5 M NaCl, calibrated with protein markers; GDHs with the cut-off His-tag. A general note: SEC sorts molecules by how far they enter the pores of the column.

In series [7] the target is glucose dehydrogenase (GDH) from Methylobacter luteus IMV-B-3098 (Methylobacter luteus IMV-B-3098). The series is described as above.
Substrate in series [8]: Nc1ncnc2c1ncn2[C@@H]1O[C@H](COP(=O)(O)OP(=O)(O)OP(=O)(O)O)[C@@H](O)[C@H]1O
The series is described as follows: purified protein. In kind it is biochemical, Methylotuvimicrobium alcaliphilum. To be noted: pH 9.0 Tris-HCl, 8 mM MgCl2, 6 mM gluconate, Hill n = 1.6.

Substrate in series [9]: O=C(O)[C@H](O)[C@@H](O)[C@H](O)[C@H](O)CO
The series is described as follows: purified protein. In kind it is biochemical, Methylotuvimicrobium alcaliphilum. Particulars: pH 9.0 Tris-HCl, 8 mM MgCl2, 5 mM ATP.

Substrate in series [10]: NC(=O)c1ccc[n+]([C@@H]2O[C@H](COP(=O)(O)OP(=O)(O)OC[C@H]3O[C@@H](n4cnc5c(N)ncnc54)[C@H](OP(=O)(O)O)[C@@H]3O)[C@@H](O)[C@H]2O)c1
In words: purified protein. It counts as biochemical, Methylotuvimicrobium alcaliphilum. To be noted: pH 10.0 glycine-NaOH, 30 °C, 200 mM D-glucose.

Substrate in series [11]: NC(=O)c1ccc[n+]([C@@H]2O[C@H](COP(=O)(O)OP(=O)(O)OC[C@H]3O[C@@H](n4cnc5c(N)ncnc54)[C@H](O)[C@@H]3O)[C@@H](O)[C@H]2O)c1
In words: purified protein. It counts as biochemical, Methylotuvimicrobium alcaliphilum. Particulars: pH 10.0 glycine-NaOH, 30 °C, 200 mM D-glucose.

T2 sequence (Z9JUG8QEO0 1-271 limits assumed): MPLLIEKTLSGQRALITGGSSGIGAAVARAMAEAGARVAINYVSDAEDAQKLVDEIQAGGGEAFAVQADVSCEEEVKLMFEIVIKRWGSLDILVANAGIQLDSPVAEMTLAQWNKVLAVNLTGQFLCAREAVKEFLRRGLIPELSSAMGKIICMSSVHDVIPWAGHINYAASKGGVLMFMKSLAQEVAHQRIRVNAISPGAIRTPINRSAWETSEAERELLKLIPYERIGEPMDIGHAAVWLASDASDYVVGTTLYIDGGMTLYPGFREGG

Regarding `O=C(O)CCC(=O)O` [Succinate], the remaining activity at 1000 µM in series [1] worked out at 99 ± 1%.

`CC(O)C(=O)O` (stereo not shown) [Lactate]: the remaining activity at 1000 µM in [1] is 116 ± 1%.

For `O=P(O)(O)O[C@H]1O[C@H](CO)[C@@H](O)[C@H](O)[C@H]1O` [Glucose-1-phosphate], the remaining activity at 5000 µM in series [1] was 103 ± 1%.

As to `O=P(O)(O)OC[C@H]1OC(O)[C@H](O)[C@@H](O)[C@@H]1O` (stereo partly shown) [glucose-6-phosphate], the “% decrease of activity at 10 mM” value in series [2] worked out at 40%. The remaining activity at 5000 µM in series [3] stood at 96 ± 1%.

As for `Nc1ncnc2c1ncn2[C@@H]1O[C@H](COP(=O)(O)OP(=O)(O)OP(=O)(O)O)[C@@H](O)[C@H]1O` [ATP], the remaining activity at 1000 µM in [1] was 93 ± 2%.

Turning to `O=C(CO)[C@@H](O)[C@H](O)[C@H](O)COP(=O)(O)O` [Fructose-6-phosphate], in series [1], the remaining activity at 5000 µM was 101 ± 1%.

In general, Km refers to the substrate concentration at which the rate is half of its maximum. One may read the kcat as the maximal rate divided by the concentration of active sites. On to MbGDH (Methylobacter luteus), for which, in series [4], the Km stood at 1600 ± 300 µM and the kcat was determined as 0.067 s⁻¹. Besides, in series [5], the Km worked out at 120 ± 20 µM and the kcat was 0.05 s⁻¹.

On to `C=C(OP(=O)(O)O)C(=O)O` [Phosphoenolpyruvate], for which, in [1], the remaining activity at 1000 µM came out at 94%. For the same molecule, the remaining activity at 5000 µM in series [3] was 84 ± 1%.

On to `Nc1ncnc2c1ncn2[C@@H]1O[C@H](COP(=O)(O)O)[C@@H](O)[C@H]1O` [AMP], for which the remaining activity at 1000 µM in series [1] is 109 ± 1%. Further, in [3] (4 mM), the remaining activity at 4000 µM came to 98 ± 1%.

As for `O=C(O)CC(=O)C(=O)O` [Oxaloacetate], the remaining activity at 1000 µM in [1] is 107 ± 3%; in [3] it was 101 ± 1%.

Regarding `Nc1ncnc2c1ncn2[C@@H]1O[C@H](COP(=O)(O)OP(=O)(O)O)[C@@H](O)[C@H]1O` [ADP], the remaining activity at 1000 µM in series [1] came to 87 ± 1%. Besides, the remaining activity at 5000 µM in [3] was determined as 71 ± 1%.

With `N[C@@H](CO)C(=O)O` [Serine], the remaining activity at 1000 µM in series [1] turned out to be 108 ± 3%.

As usually defined, the stoichiometry N is a count of units in the complex or per binding partner. In the case of “glucose dehydrogenase (GDH) from Methylotuvimicrobium alcaliphilum 20Z (enzyme)”, the stoichiometry N in [6] amounted to 4.

As for `O=C(O)CC(O)(CC(=O)O)C(=O)O` [Citrate], the remaining activity at 1000 µM in series [1] worked out at 119 ± 1%.

For the molecule `O=P(O)(O)OC[C@H]1O[C@@](O)(COP(=O)(O)O)[C@@H](O)[C@@H]1O` [Fructose-1,6-bisphosphate], in series [1], the remaining activity at 5000 µM was determined as 103 ± 1%.

As to `O=C(O)CC(O)C(=O)O` (stereo not shown) [Malate], the remaining activity at 1000 µM in series [1] was determined as 95 ± 5%.

With `O=C(O)CCC(=O)C(=O)O` [α-Ketoglutarate], the remaining activity at 1000 µM worked out at 104 ± 1% in series [1] and 90 ± 2% in series [3].

For the molecule `O=P(O)(O)O[C@H]1O[C@H](CO)[C@@H](O)[C@H](O)[C@H]1O` [Glucose 1-Phosphate], the remaining activity at 5000 µM in series [3] was found to be 96 ± 2%.

`CC(=O)C(=O)O` [Pyruvate]: the remaining activity at 1000 µM in series [1] came to 96 ± 1%. Further, the remaining activity at 3000 µM in [3] (3 mM) was 95 ± 2%.

In the case of “glucose dehydrogenase (GDH) from Methylobacter luteus IMV-B-3098 (enzyme)”, in series [7], the stoichiometry N is 4.

B1: MtmGntK (Methylotuvimicrobium alcaliphilum 20Z) (protein)
chain: MNSSNDSRHRAARVVIIGGVSGCGKSTVGRALAEYLGWSFIEGDAFHSEANIEKMRRGEALDDNDRRPWLESLHNEIIYHLDRGISAVMACSALKASYREILCGDEVNVSFVFLSCSRESLHRRLTTRQGHFLGAELLDSQLAAFESSHDILLIDSEQAVETLVESIADWLAYSGSECDET
notes: C-terminal His6, E. coli Rosetta (DE3), pET30; ~20 kDa, monomer
Take B1: in series [8], the K0.5 was 1.3 ± 0.2 mM and the kcat was found to be 0.00867 s⁻¹. Also, in series [9], the K0.5 is listed as 0.6 ± 0.04 mM and the kcat turned out to be 0.00433 s⁻¹.

B2: MtmGDH without His6-tag (Methylotuvimicrobium alcaliphilum 20Z) (protein)
chain: MPLIIEKSLAGQRALVTGSSSGIGAAIAVALAEAGARVAINYMSDAEGAGEIVDQIQALGGEAIAVQADVSQEDQVIAMFQQVIGTWGSLDILVNNAGIQLDAPFVEMTLKQWETVMAVNLTGQFLCAREAVKEFLRRGVVPELSCSAGKIICNSSVHDIIPWAGHVNYSASKGGLLMFMKSLAQEVAHDKIRVNAVSPGAIKTPINRSAWETPEAEADLLKLIPYERVGESADIARAVVWLASDASDYVVGTTLYIDGGMTLYPGFREGG
notes: full ORF, His6 tag cut off with Usp2-His6 protease (not repurified afterwards), E. coli Rosetta (DE3), pET28Ub-shHis; homotetramer 112 kDa
B2: the Km in series [10] was 340 ± 20 µM; in series [11], 390 ± 60 µM.

B3: MtmGDH (Methylotuvimicrobium alcaliphilum 20Z) (protein)
chain: MPLIIEKSLAGQRALVTGSSSGIGAAIAVALAEAGARVAINYMSDAEGAGEIVDQIQALGGEAIAVQADVSQEDQVIAMFQQVIGTWGSLDILVNNAGIQLDAPFVEMTLKQWETVMAVNLTGQFLCAREAVKEFLRRGVVPELSCSAGKIICNSSVHDIIPWAGHVNYSASKGGLLMFMKSLAQEVAHDKIRVNAVSPGAIKTPINRSAWETPEAEADLLKLIPYERVGESADIARAVVWLASDASDYVVGTTLYIDGGMTLYPGFREGG
notes: full ORF, N-terminal His6 kept, E. coli Rosetta (DE3), pET28
B3: in series [10], the Km amounted to 140 ± 10 µM and the kcat turned out to be 0.00583 s⁻¹. In [11], the Km was found to be 360 ± 20 µM and the kcat worked out at 0.177 s⁻¹.

The values above are taken from PMC8062543 (Scientific Reports, 2021).
